Assay results reported in US20080027088A1, “Imidazole-Based Hmg-Coa Reductase Inhibitors” (Warner-Lambert Company, LLC, priority 2004, published 2008).

Test system: ApoE KO mice fed a Western diet
Experiment: Sphinganine in liver and aorta by LC/MS, 12 weeks
Assay type: in vivo
Conditions: 0.3 mg/kg/day
Description: Analysis of Sphingolipids and Phospholipids by LC/MS and HPLC-Total lipids were extracted by the modified method of Bligh-Dyer extraction (E. G. Bligh and W. J. Dyer, Can. J. Med. Sci. 1959;37:911-917; and D. K. Perry, A. Bielawska and Y. A. Hannun, Methods Enzymol. 2000;312:22-31). A Micromass (Waters Corp., Milford, Mass.) Quattro Ultima tandem quadrupole mass spectrometer with a standard Z-sprayTM ion source, set to electrospray positive ionization mode, with MassLynxTM version 3.5 operating software, was used for all quantitative determinations. Source conditions were typically as follows: capillary 3.5 kV, source temperature 110 degrees C., and desolvation temperature 325 degrees C. Multipliers were set to 650 V, and the dwell time for each analyte was 100 milliseconds. […] The following ion transitions were used for quantification: sphingomyelin (704→184 m/z), sphinganine (302→284 m/z), ceramide (566→264 m/z) and psychosine (462→282 m/z) as an internal standard. […] For the quantitative method, the analytical column was a Phenomenex (Torrance, Calif.) Polar-RP (2.0×150 mm, 4 μm) with a […] […] Lipid extracts were analyzed by HPLC and evaporative light scattering detector to determine plasma sphingomyelin and phosphatidylcholine (PC) levels (R. Homan and M.K. Anderson, J. Chromatogr. B. Biomed. Sci. Appl. 1998;708:21-6). […] Sphinganine levels in liver (A) and aorta (B) were determined by LC/MS. […]

With `CCCCCCC(=O)CCCCCC/C=C/C[C@@H](O)[C@H](O)[C@@](N)(CO)C(=O)O` [myriocin] the “sphinganine levels in the liver lowered” value (vs Western diet-fed ApoE KO mice) was 42% and the “sphinganine levels in aorta lower” value (vs Western diet-fed group) was 45%.
